Patent US10787459B2, “Bicyclic compounds as ATX inhibitors” (Hoffmann-La Roche Inc., priority 2015, dated 2020)
Like-named read-outs stand apart in the source and are kept apart here.

Biological target: ATX (human His-tagged) (Homo sapiens (Human), UniProt Q13822)
Test: Human ATX enzyme inhibition assay (fluorescence quenching, MR121 substrate)
Type: biochemical
Conditions: 1 μM MR121 substrate, 30° C., pH 8.0
Description: Human ATX Enzyme Inhibition Assay
Assay working solutions were made as follows:

Row | SMILES | IC50 (ATX IC50, 30 nM ATX) [nM] | IC50 (30 nM ATX, read-out: ATX IC50) [nM]
1 | CO[C@]12CN(C(=O)c3cc(OCC4CCOCC4)nc(C4CC4)c3)C[C@@H]1CN(C(=O)N1CCc3[nH]nnc3C1)C2 (racemic) [Example 2.00, trans-[3a-Methoxy-5-(1,4,6,7-tetrahydrotriazolo[4,5-c]pyridine-5-carbonyl)-3,4,6,6a-tetrahydro-1H-pyrrolo[3,4-c]pyrrol-2-yl]-[2-cyclopropyl-6-(oxan-4-ylmethoxy)pyridin-4-yl]methanone] | 12 | 
2 | O=C(OCc1ccc(OC(F)(F)F)cc1)N1C[C@@H]2CN(C(=O)c3ccc4[nH]nnc4c3)C[C@@]2(F)C1 (relative stereo) [Example 1.00, trans-5-(1H-Benzotriazole-5-carbonyl)-3a-fluoro-hexahydro-pyrrolo[3,4-c]pyrrole-2-carboxylic acid 4-trifluoromethoxy-benzyl ester] |  | 5
3 | CO[C@]12CN(C(=O)OCc3ccc(OC(F)(F)F)cc3)C[C@@H]1CN(C(=O)c1ccc3[nH]nnc3c1)C2 (relative stereo) [Example 1.01, trans-5-(1H-benzotriazole-5-carbonyl)-3a-methoxy-hexahydro-pyrrolo[3,4-c]pyrrole-2-carboxylic acid 4-trifluoromethoxy-benzyl ester] |  | 12
4 | CO[C@]12CN(C(=O)CCc3ccc(OC(F)(F)F)cc3)C[C@@H]1CN(C(=O)c1ccc3[nH]nnc3c1)C2 (relative stereo) [Example 1.02, trans-1-[5-(1H-benzotriazole-5-carbonyl)-3a-methoxy-3,4,6,6a-tetrahydro-1H-pyrrolo[3,4-c]pyrrol-2-yl]-3-[4-(trifluoromethoxy)phenyl]propan-1-one] |  | 10
5 | CO[C@@]12CN(C(=O)c3cc(OCC4CCOCC4)nc(C4CC4)c3)C[C@H]1CN(C(=O)c1ccc3[nH]nnc3c1)C2 (relative stereo) [Example 1.03, trans-[5-[2-cyclopropyl-6-(oxan-4-ylmethoxy)pyridine-4-carbonyl]-3a-methoxy-3,4,6,6a-tetrahydro-1H-pyrrolo[3,4-c]pyrrol-2-yl]-(1H-benzotriazol-5-yl)methanone] |  | 13
6 | C[C@]12CN(C(=O)OCc3ccc(OC(F)(F)F)cc3)C[C@@H]1CN(C(=O)c1ccc3[nH]nnc3c1)C2 (relative stereo) [Example 1.04, trans-5-(1H-benzotriazole-5-carbonyl)-3a-methyl-hexahydro-pyrrolo[3,4-c]pyrrole-2-carboxylic acid 4-trifluoromethoxy-benzyl ester] |  | 13
7 | CO[C@]12CN(C(=O)CCc3ccc(OC(F)(F)F)cc3)C[C@@H]1CN(C(=O)c1ccc3[nH]c(=O)n(C)c3c1)C2 (relative stereo) [Example 1.05, trans-5-[3a-methoxy-2-[3-[4-(trifluoromethoxy)phenyl]propanoyl]-3,4,6,6a-tetrahydro-1H-pyrrolo[3,4-c]pyrrole-5-carbonyl]-3-methyl-1H-benzimidazol-2-one] |  | 18
8 | CO[C@@]12CN(C(=O)c3cc(OCC4CCOCC4)nc(C4CC4)c3)C[C@H]1CN(C(=O)c1ccc3[nH]c(=O)n(C)c3c1)C2 (relative stereo) [Example 1.06, trans-5-[5-[2-cyclopropyl-6-(oxan-4-ylmethoxy)pyridine-4-carbonyl]-3a-methoxy-3,4,6,6a-tetrahydro-1H-pyrrolo[3,4-c]pyrrole-2-carbonyl]-3-methyl-1H-benzimidazol-2-one] |  | 2
9 | CO[C@]12CN(C(=O)CCc3ccc(OC(F)(F)F)cc3)C[C@@H]1CN(C(=O)N1CCc3[nH]nnc3C1)C2 (relative stereo) [Example 2.01, trans-1-[3a-methoxy-5-(1,4,6,7-tetrahydrotriazolo[4,5-c]pyridine-5-carbonyl)-3,4,6,6a-tetrahydro-1H-pyrrolo[3,4-c]pyrrol-2-yl]-3-[4-(trifluoromethoxy)phenyl]propan-1-one] |  | 30
10 | CO[C@]12CN(C(=O)CCc3ccc(OC(F)(F)F)cc3)C[C@@H]1CN(C(=O)N1CCc3c(O)noc3C1)C2 (relative stereo) [Example 2.02, trans-1-[5-(3-hydroxy-5,7-dihydro-4H-[1,2]oxazolo[5,4-c]pyridine-6-carbonyl)-3a-methoxy-3,4,6,6a-tetrahydro-1H-pyrrolo[3,4-c]pyrrol-2-yl]-3-[4-(trifluoromethoxy)phenyl]propan-1-one] |  | 120
11 | CO[C@]12CN(C(=O)c3cc(OCC4CCOCC4)nc(C4CC4)c3)C[C@@H]1CN(C(=O)N1CCc3c(O)noc3C1)C2 (relative stereo) [Example 2.03, trans-[5-(3-hydroxy-5,7-dihydro-4H-[1,2]oxazolo[5,4-c]pyridine-6-carbonyl)-3a-methoxy-3,4,6,6a-tetrahydro-1H-pyrrolo[3,4-c]pyrrol-2-yl]-[2-cyclopropyl-6-(oxan-4-ylmethoxy)pyridin-4-yl]methanone] |  | 18
12 | CO[C@]12CN(C(=O)c3cc(OCC4CCOCC4)nc(C4CC4)c3)C[C@@H]1CN(C(=O)N1CCc3[nH]nnc3C1)C2 (single isomer, unassigned) [Example 3.00, trans-[3a-methoxy-5-(1,4,6,7-tetrahydrotriazolo[4,5-c]pyridine-5-carbonyl)-3,4,6,6a-tetrahydro-1H-pyrrolo[3,4-c]pyrrol-2-yl]-[2-cyclopropyl-6-(oxan-4-ylmethoxy)pyridin-4-yl]methanone] | 6 | 
13 | CO[C@@]12CN(C(=O)c3cc(OCC4CCOCC4)nc(C4CC4)c3)C[C@H]1CN(C(=O)N1CCc3c(O)noc3C1)C2 (single isomer, unassigned) [Example 3.01, trans-[5-(3-hydroxy-5,7-dihydro-4H-[1,2]oxazolo[5,4-c]pyridine-6-carbonyl)-3a-methoxy-3,4,6,6a-tetrahydro-1H-pyrrolo[3,4-c]pyrrol-2-yl]-[2-cyclopropyl-6-(oxan-4-ylmethoxy)pyridin-4-yl]methanone] |  | 20
14 | C[C@@]12CN(C(=O)OCc3ccc(OC(F)(F)F)cc3)C[C@H]1CN(C(=O)c1ccc3[nH]nnc3c1)C2 (single isomer, unassigned) [Example 3.02, (+)-trans-5-(1H-benzotriazole-5-carbonyl)-3a-methyl-hexahydro-pyrrolo[3,4-c]pyrrole-2-carboxylic acid 4-trifluoromethoxy-benzyl ester] |  | 12
15 | CO[C@@]12CN(C(=O)OCc3ccc(OC(F)(F)F)cc3)C[C@H]1CN(C(=O)c1ccc3[nH]nnc3c1)C2 (single isomer, unassigned) [Example 3.03, (−)-trans-5-(1H-benzotriazole-5-carbonyl)-3a-methoxy-hexahydro-pyrrolo[3,4-c]pyrrole-2-carboxylic acid 4-trifluoromethoxy-benzyl ester] |  | 19
16 | CO[C@]12CN(C(=O)c3cc(OCC4CCOCC4)nc(C4CC4)c3)C[C@@H]1CN(C(=O)N1CCc3[nH]nnc3C1)C2 (single isomer, unassigned) [Example 4.00, trans-[3a-methoxy-5-(1,4,6,7-tetrahydrotriazolo[4,5-c]pyridine-5-carbonyl)-3,4,6,6a-tetrahydro-1H-pyrrolo[3,4-c]pyrrol-2-yl]-[2-cyclopropyl-6-(oxan-4-ylmethoxy)pyridin-4-yl]methanone] | 10 | 
17 | CO[C@@]12CN(C(=O)c3cc(OCC4CCOCC4)nc(C4CC4)c3)C[C@H]1CN(C(=O)N1CCc3c(O)noc3C1)C2 (single isomer, unassigned) [Example 4.01, trans-[5-(3-hydroxy-5,7-dihydro-4H-[1,2]oxazolo[5,4-c]pyridine-6-carbonyl)-3a-methoxy-3,4,6,6a-tetrahydro-1H-pyrrolo[3,4-c]pyrrol-2-yl]-[2-cyclopropyl-6-(oxan-4-ylmethoxy)pyridin-4-yl]methanone] |  | 8
18 | C[C@@]12CN(C(=O)OCc3ccc(OC(F)(F)F)cc3)C[C@H]1CN(C(=O)c1ccc3[nH]nnc3c1)C2 (single isomer, unassigned) [Example 4.02, (−)-trans-5-(1H-benzotriazole-5-carbonyl)-3a-methyl-hexahydro-pyrrolo[3,4-c]pyrrole-2-carboxylic acid 4-trifluoromethoxy-benzyl ester] |  | 6
19 | CO[C@@]12CN(C(=O)OCc3ccc(OC(F)(F)F)cc3)C[C@H]1CN(C(=O)c1ccc3[nH]nnc3c1)C2 (single isomer, unassigned) [Example 4.03, (+)-trans-5-(1H-benzotriazole-5-carbonyl)-3a-methoxy-hexahydro-pyrrolo[3,4-c]pyrrole-2-carboxylic acid 4-trifluoromethoxy-benzyl ester] |  | 7
